Converted amounts (≈) assume the structure as drawn.
Test: Solubility of amino acids in water
Type: physicochemical
Details: at 25° C.

solubility [mg/mL] | Structure (SMILES)
167 (≈ 1870 mM) | CC(N)C(=O)O (racemic) [DL - Alanine]
40 (≈ 268 mM) | CSCCC(N)C(=O)O (racemic) [DL - Methionine]
